≈ marks a conversion by molar mass, not a printed value. Read-outs that look alike come from different tables or passages of the source.
Tests used:
butyryl cholinesterase = molecular target: butyryl cholinesterase; set-up: method as in PMID 23046385; conditions: read-out: inhibitory activity against butyryl cholinesterase IC50; cited from earlier work
physchem = type: physicochemical; conditions: for light transmittance of the diluted solution: 1 h, 1.82 mM
Experimental: All the metabolites obtained during this study were more polar than their parent compound (−)-α-bisabolol (1) and proposed to have higher aqueous solubility. In order to confirm the improvement in solubility, a modified kinetic solubility test was carried out using the stock solutions of compounds 1–12 (20 mM in dimethyl sulfoxide). […] This was confirmed by measuring the light transmittance of the diluted solutions.
The solubility of compounds 1–12 was evaluated by the modified kinetic solubility assay. Compounds 1–12 were dissolved in dimethyl sulfoxide (DMSO) to yield 20 mM stock solutions, then 10 μL of the compound stock solution was diluted with 100 μL water. After all the solutions were prepared, the vials were placed under room temperature and allowed to mix for 1 h. After this, the light transmittance was measured at a scan width of 5 nm over the range of 390 to 650 nm using a SpectraMax 190 Microplate reader (Molecular Devices, Sunnyvale, CA, USA). After centrifugation, the supernatant was analyzed by HPLC under 200 nm using a Zorbax SB-CN (250 × 10 mm) column with 60% methanol as mobile phase at a flow rate of 2 mL/min.

[1] = set-up: method as in earlier work; conditions: antioxidant activity; cited from earlier work
[2] = test system: lung cancer cell line A549; conditions: cited from earlier work
[3] = test system: LPS-induced production of NO and PGE2; set-up: method as in PMID 21771629; conditions: dose-dependent; cited from earlier work
[4] = test system: healthy and infected hamsters; conditions: cited from earlier work
promastigotes = test system: promastigotes; set-up: method as in PMID 25448354, PMID 27616730; conditions: in vitro, cited from earlier work
[5] = set-up: method as in PMID 24894548; conditions: cited from earlier work

14-hydroxymethyl caryophyllene oxide
IC50 (butyryl cholinesterase): 10.9 µM

CC(C)=CCC[C@](C)(O)[C@@H]1CC=C(CO)CC1 [Compound 11, 15-hydroxy-α-bisabolol]
light transmittance of the diluted solution (physchem): 90%

C=C1CC[C@H]2O[C@]2(C)CC[C@@H]2[C@@H]1CC2(C)C [caryophyllene oxide]
IC50 (butyryl cholinesterase): 208 µM

CC(C)=CCC[C@](C)(O)[C@@H]1CC=C(C)[C@H](O)C1 [Compound 2, (1R,5R,7S)-5-hydroxy-α-bisabolol]
light transmittance of the diluted solution (physchem): 90%

CC1=CC[C@@H]([C@]2(C)CC[C@H](O)C(C)(C)O2)CC1 [α-Bisabolol oxide A]
IC50 for DPPH radical scavenging ability [1]: 1500 µg/mL

CC(C)=CCC[C@](C)(O)[C@H]1CC[C@](C)(O)[C@H](O)C1 [Compound 8, (1S,3R,4S,7S)-3,4-dihydroxy-α-bisabolol]
light transmittance of the diluted solution (physchem): 90%

CC1=CC[C@@](O)([C@]2(C)CC[C@@H](C(C)(C)O)O2)CC1 [Compound 5, (1R,7S,10S)-1-hydroxybisabolol oxide B]
light transmittance of the diluted solution (physchem): 90%

C=C(CO)C1CCC2=CC(=O)CC(C)C2(C)C1 (centres unmarked) [13-hydroxynootkatone]
cytotoxic activity IC50 [2]: 36 µg/mL

CC(C)=CCC[C@](C)(O)[C@@H]1CC=C(C)CC1 [Compound 1, (−)-α-Bisabolol]
effect on LPS-induced production of NO and PGE2 [3]: significantly reduce
IC50 for DPPH radical scavenging ability [1]: 43880 µg/mL
toxicity or side effects after administration [4]: did not lead to the appearance of toxicity or side effects
antileishmanial activity IC50 (promastigotes; 24 h): 8.07 µg/mL
antileishmanial activity IC50 (promastigotes; 48 h): 4.26 µg/mL
effect on TPA-induced ear thickness and histopathological damage in the ear tissue [5]: significantly inhibited
appearance after dilution (turbidity / precipitates) (physchem; 10 μL of 20 mM DMSO stock diluted with 100 μL water): White turbidity
light transmittance of the diluted solution (physchem): less than 50%
solubility at 1 h (physchem; aqueous with cosolvent or surfactant or cyclodextrin, kinetic from dmso stock): 260 µM (≈ 57.8 µg/mL)

— PMC8840173 (Molecules, 2022)
